Results reported in patent publication US7608416B2, “Targeting mPGES-1 as a treatment for inflammation which avoids cardiovascular risk” (The Trustees of the University of Pennsylvania, priority 2004, dated 2009).

How the values were obtained:
[1] = tested on: PGI2 biosynthesis (urinary 2,3-dinor 6-keto PGF1α, PGIM); assay: Urinary PGIM (2,3-dinor 6-keto PGF1α) excretion, 24 h urine, GC/MS; format: in vivo, mouse; conditions: DFU, WT male mice, before vs after administration (FIG. 2)
Method: Eicosanoid analyses: Urinary TxM and PGIM were measured in twenty four hour urines collected in metabolic cages. After extraction and purification by thin layer chromatography, they were analyzed by a stable isotope dilution reverse phase (C18) HPLC/tandem mass spectrometry assay and gas chromatography/mass spectrometry, respectively, as previously described (Egan et al., 2005, Circulation 111: 334-242).
The relative contribution of the PGHS enzymes, PGHS-1 and PGHS-2, to the biosynthesis of PGI2 and TxA2 was assessed by measuring urinary 2,3-dinor 6-keto PGF1α (PGIM) and 2,3-dinor TxB2 (TxM) respectively. […] PGIM and TxM was also assessed in PGHS-1 knockdown (KD) mice. […] Traditional NSAIDS and NSAIDs selective for PGHS-2 inhibit COX activity, not POX activity. Tyr385 in PGHS (ovine PGH-1 numbering) is critical for cyclooxygenase (COX) catalysis, but is uninvolved in peroxidase (POX) activity. PGIM and TxM was also assessed in PGHS-2^Y385F mice, in which the cyclooxygenase, but not the peroxidase (POX) function, of PGHS-2 is inactivated, thereby mimicking the effect of a selective PGHS-2 inhibitor (Yu et al., 2005a, J. Clin. Invest. (Submitted manuscript)).

[2] = tested on: PGE2 biosynthesis (urinary PGEM); assay: Urinary PGEM by LC/MS/MS; format: in vivo, mouse; conditions: DFU, WT male mice, vs pre-administration value (FIG. 11)
Method: Urinary PGEM was measured by LC/MS/MS as follows: First, 10 ng of hexadeuterated PGEM (9,15-dioxo-11α-hydroxy-2,3,4,5-tetranor-prostan-1,20-dioic-17,17,18,18,19,19-d6 acid; Cayman Chemical Co., Ann Arbor, Mich.) was added as an internal standard to 0.1 ml of mouse urine. Next, 50 μL of 1 g/ml methoxyamine HCl was added, and the sample was mixed and allowed to stand at room temperature for 15 minutes. The sample was then diluted to 1.0 ml with water and loaded on a StrataX solid phase extraction (SPE) cartridge (Phenomenex, Torrance, Calif.). The SPE was eluted with 1.0 mL of 5% acetonitrile in ethyl acetate, dried, dissolved in 200 μL 10% acetonitrile in water, and injected for LC/MS/MS analysis. Transitions monitored were m/z 385→336 for the endogenous PGE-M and 391→342 for the internal standard.
PGE2 biosynthesis was assessed in mice having inhibited or deleted PGHS-1 or PGHS-2 function using a mass spectrometric assay (FIG. 9) for the major PGE metabolite, 11α-hydroxy-9,15-dioxo-2,3,4,5-tetranor-prostane-1,20-dioic acid (PGEM). […] Thus, unlike PGI2 biosynthesis, both PGHS-1 and PGHS-2 each contribute substantially to PGE2 biosynthesis.

mice [3] = conditions: mouse, in vivo
Method: (i) Photochemical vascular injury: This model is an adaptation of one previously described method (Yu et al., 2005, J. Clin. Invest. 115:986-95). Briefly, mice were anesthetized with sodium pentobarbital (80 mg/kg, intraperitoneally). The left common carotid artery was isolated and a Doppler flow probe (Model 0.5 VB, Transonic Systems Co., NY) was applied. The probe was connected to a flowmeter (Transonic Model T105) and interpreted with a computerized data acquisition program (Powerlab, AD Instruments, CO). Just before i.v. injection of Rose Bengal (50 mg/kg body weight, Fisher Scientific, NJ), a 1.5-mW green light laser (540 nm) (Melles Griot Inc, Carlsbad, Calif.) was applied to the desired site of injury at a distance of 5 cm from the carotid artery. Blood flow was monitored up to 120 minutes after injection or until stable occlusion occurred. Stable occlusion was defined as a blood flow of 0 ml/min for 3 minutes. To confirm occlusive thrombosis, carotid arterial segments subjected to injury were excised and embedded in paraffin. Sections were then stained with hematoxylin and eosin.

[4] = target: T1, thromboxane receptor (TP) (Mus musculus, UniProt P30987); assay: U46619 induced sudden death; format: in vivo; conditions: PGHS-2 KO and PGHS-2 Y385F mice compared to WT, 0.2 mg/kg intravenous, within 15 min
T1 construct: they received a rapid intravenous injection of U46619 (0.2 mg/kg in PBS, Cayman Chemical) via the tail vein; from tissue; host or cells: whole animal: WT, PGHS-2 KO and PGHS-2 Y385F mice, in vivo
T1 sequence (P30987 1-341): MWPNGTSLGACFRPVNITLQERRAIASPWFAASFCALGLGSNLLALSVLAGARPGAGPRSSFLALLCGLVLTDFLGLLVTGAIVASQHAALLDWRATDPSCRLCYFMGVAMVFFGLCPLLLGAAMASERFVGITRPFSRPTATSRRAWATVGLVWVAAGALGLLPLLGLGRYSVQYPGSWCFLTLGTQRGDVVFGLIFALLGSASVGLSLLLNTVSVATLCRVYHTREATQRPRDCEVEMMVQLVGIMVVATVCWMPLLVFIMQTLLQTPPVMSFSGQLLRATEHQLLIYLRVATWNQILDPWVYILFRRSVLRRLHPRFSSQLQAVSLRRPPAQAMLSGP
Method: (iii) U46619 induced sudden death: This model is based on a model established previously (Momi et al., 2000, Eur. J. Pharmacol. 397: 177-85). Briefly, mice (3-4 months old) were anesthetized with sodium pentobarbital. Then they received a rapid intravenous injection of U46619 (0.2 mg/kg in PBS, Cayman Chemical) via the tail vein. Heart rate was monitored for 15 minutes prior to sacrifice.

mice [5] = assay: Tail cuff blood pressure measurement; format: in vivo, mouse
Method: (i) Tail Cuff measurement: Resting systolic blood pressure was measured in conscious, 3-4 month old mice using a computerized, noninvasive tail-cuff system, BP-2000 Blood Pressure Analysis System™ (Visitech Systems, Inc. Apex, N.C.). […] Mice were adapted to the system for 14 days by taking blood pressure measurements during 25 minute long sessions. The sessions were held once daily between 15:00 and 18:00. After the adaptation period, blood pressure was recorded daily for 3 consecutive days in the same way. Data were collected and analyzed using updated BP 2000 Analysis Software.

IP (PGI2 receptor) [6] = target: T2, IP (PGI2 receptor) (Mus musculus, UniProt P43252); assay: Direct measurement of blood pressure (MAP) after i.v. cicaprost; format: in vivo; conditions: 1 μg/kg intravenously; for Maximal decline in MAP from pretreatment baseline: C57BL/6, anesthetized
T2 construct: anesthetized WT, IP^+/−, and IP^−/− littermates on C57BL/6 genetic background, following administration of the IP agonist cicaprost; from tissue; host or cells: whole animal: anesthetized WT, IP+/- and IP-/- mice, C57BL/6 background, in vivo
T2 sequence (P43252 1-412): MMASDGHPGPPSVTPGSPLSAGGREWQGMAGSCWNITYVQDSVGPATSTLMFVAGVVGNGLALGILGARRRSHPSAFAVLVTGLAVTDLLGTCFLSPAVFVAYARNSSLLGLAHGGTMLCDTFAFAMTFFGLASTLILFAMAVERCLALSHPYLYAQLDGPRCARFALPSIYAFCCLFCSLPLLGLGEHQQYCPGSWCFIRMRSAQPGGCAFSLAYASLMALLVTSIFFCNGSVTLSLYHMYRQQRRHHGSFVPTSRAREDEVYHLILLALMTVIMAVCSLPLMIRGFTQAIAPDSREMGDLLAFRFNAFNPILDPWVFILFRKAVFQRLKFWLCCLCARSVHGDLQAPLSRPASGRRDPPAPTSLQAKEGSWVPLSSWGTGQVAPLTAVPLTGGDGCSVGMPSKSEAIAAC
Method: (§1) (iii) Direct measurement of blood pressure: Mice were anesthetized (ketamine 100 mg/kg, acepromazine 5 mg/kg) and placed on a temperature-controlled panel. The right internal jugular vein and left carotid artery were cannulated with PE-10 tubing. The arterial catheter was connected to a Capto SP844 pressure transducer (Capto, Horten, Norway), and blood pressure (BP) was monitored continuously with a Powerlab/8SP system (AD Instruments Inc, Colorado Springs, Colo.), as previously described (Hui et al., 2004, Circulation 110: 3360-6; Rocca et al., 2000, Nat. Med. 6: 219-21). Blood pressure and heart rate were continuously monitored for 20-40 min until stable values were obtained. After the equilibration period and the baseline BP was recorded, mice were injected via the right internal jugular vein with cicaprost (1 μg/kg in 4 ml/kg saline) as a bolus. The same volume of saline was injected before cicaprost administration to exclude volume-mediated BP changes. The BP was continuously recorded until it returned to pretreatment baseline.
(§2) The cardiovascular consequences of deleting just one copy of the IP on cardiovascular function in vivo was studied. Mean arterial pressure (MAP) was measured directly via carotid artery catheterization in anesthetized WT, IP^+/−, and IP^−/− littermates on C57BL/6 genetic background, following administration of the IP agonist cicaprost (Cica) 1 μg/kg intravenously (FIG. 3). The maximal decline evoked by Cica in MAP was 36±3.5% from pretreatment baseline in WT, 24%±3.3% in IP+/− and 0% in IP−/− littermates(F=42, n=5; P<0.0001). […] A similar effect of IP deletion was seen on the inhibitory effect of 10 nM cicaprost on platelet aggregation induced by collagen 2 μg/ml ex vivo (FIG. 4). […] The impact of IP deletion on the time to thrombotic carotid arterial occlusion, induced by green laser activation of Rose Bengal, which causes free radical catalyzed vascular injury, was also gene-dose dependent (FIG. 5, left panel). The time to occlusion fell from 66.3±5.1 min in WTs to […] in IP^+/− to 29.7±7.6 min in IP^−/− mice (F=6.5, n=9-10, P<0.0055). Inhibition of PGHS-2 by DFU also accelerated thrombogenesis, from 59.4±10.4 min to 33.4±4.3 min (n=7-8, P<0.05; FIG. 5, right panel). Thus, the mean impact of DFU on time to occlusion (56.2% of WT value) was intermediate between that of IP^+/− ([…]) and IP^−/− (45.5%) mice.

IP (PGI2 receptor) [7] = assay: as above; format: in vivo, mouse; conditions: IP-/- mice, 1 μg/kg intravenously
Method: as §1, §2

[8] = tested on: platelet aggregation induced by collagen; assay: Whole blood platelet aggregation assay, collagen-induced, ex vivo; format: cell-based, mouse; conditions: 10 nM, collagen 2 μg/ml
Method: 250 μl blood was mixed with 750 μl of sodium chloride at 37° C. Platelet aggregation was performed using a 500 Whole Blood Lumi-Aggregometion System (Chrono-Log Corp, Havertown, Pa.) as previously described ([…] et al., 1983, Thromb. Haemost. 50: 852-6; Booth et al., 1998, Can. J. Physiol. Pharmacol. 76: 811-3; Emery et al., 1995, Arterioscler. Thromb. Vasc. Biol. 15: 748-53). Samples were pretreated with or without 10 nM cicaprost for 1 minute, and aggregation was initiated by addition of 2 μg/ml collagen.

mice [9] = assay: Collagen induced platelet consumption; format: in vivo, mouse; conditions: WTs, PGHS-2 Y385F and PGHS-2 KO mice, 2 min after i.v. collagen plus epinephrine
Method: (ii) Collagen induced platelet consumption: Briefly, mice (8 weeks old) were weighed and anesthetized with sodium pentobarbital (80 mg/kg). 100 μl of a mixture of collagen (250 μg/ml) and epinephrine (15 μg/ml) in 0.9% NaCl was injected rapidly into the tail vein. […] After thorough mixing, platelets were counted by automated multispecies hematology analyzers (CDC Technologies), as previously described (Gresele et al, 1990, Thromb. Haemost. 64:80-6).

[10] = 3 month old mice, mixed C57BL/6×129/sv, regular chow

In the case of `CC1(C)OC(=O)C(c2cccc(F)c2)=C1c1ccc(S(C)(=O)=O)cc1` [DFU, 5,5-dimethyl-3-(3-fluorophenyl)-4-(4-methylsulphonyl)phenyl-2(5H)-furanone], the “Urinary 2,3-dinor 6-keto PGF1α (PGIM)” value [1] was “depressed significantly”, the “Urinary PGEM” value [2] was “depressed PGEM significantly” and the “Mean impact on time to occlusion, % of WT value” (mice [3]) was 56.2%.

In the case of `CCCCC[C@H](O)/C=C/[C@@H]1[C@@H](C/C=C\CCCC(=O)O)[C@H]2CO[C@@H]1C2` [U46619], the “Frequency of sudden death” value [4] was “augmented”.

`Cc1ccc(-c2cc(C(F)(F)F)nn2-c2ccc(S(N)(=O)=O)cc2)cc1` [celecoxib] was tested, and the “Diastolic blood pressure compared to WTs” value (mice [5]; [10]) was “elevated significantly”, the “Systolic blood pressure compared to WTs” value (mice [5]; [10]) was “elevated significantly” and the “Hypertensive effect in PGHS-1 KDs compared to WTs” value (mice [5]; PGHS-1 KD mice) was “attenuated”.

For `CCC#CC[C@H](C)[C@H](O)C#C[C@@H]1[C@H]2C/C(=C/COCC(=O)O)C[C@H]2C[C@H]1O` [cicaprost], the “Duration of the depressor response” value (IP (PGI2 receptor) [6]; IP+/- mice) was 5.3 ± 1.1 min, the “Maximal decline in MAP from pretreatment baseline” value (“Maximal decline in MAP” below) (IP (PGI2 receptor) [6]; IP+/- mice) was 24%±3.3 and the “Duration of the depressor response” value (IP (PGI2 receptor) [6]; WT mice) was 10.8 ± 2.5 min. The “Maximal decline in MAP” value (IP (PGI2 receptor) [6]; WT mice) was 36±3.5%, the “Duration of the depressor response” value (IP (PGI2 receptor) [7]) was “no change in MAP” and the “Maximal decline in MAP” value (IP (PGI2 receptor) [7]; C57BL/6, anesthetized) was 0%. The “Inhibition of platelet aggregation” value ([8]; IP-/- mice) was “not achieved” and the inhibition at 0.01 µM ([8]; Mus musculus, Platelet, IP+/- mice, read-out: Inhibition of platelet aggregation, % of the maximal inhibition observed in WTs) was 86.7%.

In the case of collagen, the Circulating platelet count (mice [9]) was “dose-dependent decrese in platelets”.
